Source: PMC9564337, “Development of a Neurotensin-Derived ^68Ga-Labeled PET Ligand with High In Vivo Stability for Imaging of NTS1 Receptor-Expressing Tumors” (Cancers, 2022)
Read-outs that look alike come from different tables or passages of the source. Residues, ends and D or L forms follow the SMILES beside them.

Key:
hNTS1R = target: T1, hNTS1R (Homo sapiens, UniProt P30989); experiment: radioligand competition binding with [3H]UR-MK300 at intact HT-29 cells; conditions: for pKi ± SD NTS1R / Ki: [3H]UR-MK300 c = 1 nM, HT-29 cells, 23 °C
T1 construct: intact HT-29 colon carcinoma cells expressing the hNTS1R; host or cells: HT-29 human colon carcinoma cells
Text: Specific binding data (obtained by subtracting unspecific binding from total binding) were normalized (100% = specifically bound radioligand in the absence of competitor) and plotted over log(concentration of competitor) followed by a four-parameter logistic fit (SigmaPlot 12.5, Systat Software, San José, CA, USA) (note: in the case of 40, the lower curve plateau of the sigmoidal fit was constrained to >0). […] The Ki values from individual experiments were transformed to pKi values, followed by the calculation of mean pKi values ± SD.

hNTS2R = hNTS2R (Homo sapiens, UniProt O95665); experiment: radioligand competition binding with [3H]UR-MK300 at intact HEK293T-hNTS2R cells; conditions: [3H]UR-MK300 c = 10 nM
Protocol: Two days prior to the experiment, white 96-well plates with clear bottoms (Costar, catalog no. 3610) were treated with poly-D-lysine hydrobromide (Sigma-Aldrich) for 10 min. The wells were washed with H2O and the plates were dried on air at rt overnight. […] After removal of the glutaraldehyde solution, the wells were washed twelve times with H2O and two times with culture medium (150–300 µL). […] On the day of the experiment, the culture medium was carefully removed using a multi-channel pipette (Transferpette S-12, Brand, Wertheim, Germany) and the cells were washed once with Dulbecco’s phosphate-buffered saline (D-PBS) containing Ca^2+ and Mg^2+ (1.8 mM CaCl2, 2.68 mM KCl, 1.47 mM KH2PO4, 3.98 mM MgSO4, 136.9 mM NaCl and 8.06 mM Na2HPO4) (200 μL, rt) followed by the careful pre-filling of the wells with 180 µL (total binding) or 160 µL (unspecific and competition binding) of D-PBS, supplemented with 1% BSA and 100 μg/mL bacitracin (Serva, Heidelberg, Germany) (in the following referred to as binding buffer). To determine total binding, 20 µL of a solution of the radioligand in binding buffer (10-fold concentrated compared to the final concentration) were added. […] To determine the displacing effect of a compound of interest, 20 µL of a solution of the respective compound in binding buffer (10-fold concentrated) and 20 µL of a 10-fold concentrated solution of the radioligand in binding buffer were added. During the incubation period of 2 h at 23 °C, the plates were gently shaken. […] The plates were sealed with a transparent sealing tape (permanent seal for microplates, PerkinElmer, product no. 1450–461) and turned upside down several times to achieve complete mixing. Prior to the measurement of the radioactivity with a MicroBeta2 plate counter (PerkinElmer), the plates were kept in the dark for at least 1 h. All experiments were performed in triplicate.

in vitro = in vitro ADME; conditions: human; for remaining at 1 h, 100 µM / remaining at 6 h, 100 µM / remaining at 24 h, 100 µM / remaining at 48 h, 100 µM: plasma; for remaining at 1 h, 100 µM: pH 7.4, % Intact Peptide in Plasma after 1 h; for remaining at 6 h, 100 µM: pH 7.4, % Intact Peptide in Plasma after 6 h; for remaining at 24 h, 100 µM: pH 7.4, % Intact Peptide in Plasma after 24 h; for remaining at 48 h, 100 µM: pH 7.4, % Intact Peptide in Plasma after 48 h
Protocol: The concentration of the peptides in plasma/PBS (1:2 v/v) was 80 and 4 μM (recovery determination) or 100 μM (stability tests). Data analysis was based on UV detection at 220 nm (8, 9, 11, 12, 14-18, 21-23, 38-49, and 54-57) or fluorescence detection at 275/305 nm (19 and 20). Reference samples, representing 100% recovery, were prepared in duplicate (8, 9, 11, 14-16, and 19-21) or quadruplicate (12, 17, 18, 22, 23, 38-49, and 54-57). Recovery ratios were obtained by dividing the recovery of the peptide by the recovery of IS for each individual sample (n = 3-5). The obtained recoveries and the recovery ratios are summarized in Table S2, Supplementary Materials. […] Instead, the recovery ratios determined for the previously reported, structurally closely related peptide […] [40] were used for calculating the amount of remaining intact peptide in plasma.

[1] = read-out: Ki [nM] NTS1R (converted)
[2] = read-out: Ki [nM] NTS2R (converted)
[3] = read-out: pKi ± SD NTS1R (converted)
[4] = read-out: pKi ± SD NTS2R (converted)

T1 sequence (P30989 whole entry): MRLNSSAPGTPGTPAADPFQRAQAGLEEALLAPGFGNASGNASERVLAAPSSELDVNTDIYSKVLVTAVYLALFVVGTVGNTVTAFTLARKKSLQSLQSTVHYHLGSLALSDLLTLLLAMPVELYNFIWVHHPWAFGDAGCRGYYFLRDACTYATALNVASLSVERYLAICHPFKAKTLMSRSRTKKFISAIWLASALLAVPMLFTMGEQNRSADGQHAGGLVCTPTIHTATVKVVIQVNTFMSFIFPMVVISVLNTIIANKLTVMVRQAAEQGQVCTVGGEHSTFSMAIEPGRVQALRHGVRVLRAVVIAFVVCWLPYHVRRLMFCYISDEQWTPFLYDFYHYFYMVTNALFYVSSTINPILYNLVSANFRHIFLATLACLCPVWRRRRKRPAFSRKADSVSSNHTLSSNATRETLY
Sequence of hNTS2R (O95665 whole entry): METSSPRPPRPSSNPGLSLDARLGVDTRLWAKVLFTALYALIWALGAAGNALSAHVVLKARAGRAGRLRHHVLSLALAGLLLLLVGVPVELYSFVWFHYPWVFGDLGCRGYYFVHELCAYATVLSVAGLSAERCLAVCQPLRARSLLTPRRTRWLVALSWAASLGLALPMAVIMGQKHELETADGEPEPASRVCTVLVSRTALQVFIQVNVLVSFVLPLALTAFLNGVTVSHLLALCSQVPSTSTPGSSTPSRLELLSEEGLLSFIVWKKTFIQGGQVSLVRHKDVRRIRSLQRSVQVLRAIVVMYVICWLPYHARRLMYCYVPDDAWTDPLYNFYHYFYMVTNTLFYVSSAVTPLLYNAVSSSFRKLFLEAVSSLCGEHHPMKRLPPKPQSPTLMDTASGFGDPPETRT

| SMILES | NTS1R Selectivity (Ratio Ki (NTS2R)/Ki (NTS1R)) (hNTS1R) | pKi ± SD NTS1R (hNTS1R) | Ki (hNTS1R; [1]) | pKi ± SD NTS2R (hNTS2R) | Ki (hNTS2R; [2]) | % Intact Peptide in Plasma after 1 h (in vitro; 1 h, 100 µM, pH 7.4) | % Intact Peptide in Plasma after 6 h (in vitro; 6 h, 100 µM, pH 7.4) | % Intact Peptide in Plasma after 24 h (in vitro; 100 µM, pH 7.4) | % Intact Peptide in Plasma after 48 h (in vitro; 100 µM, pH 7.4) | remaining at 1 h, 100 µM (in vitro) | remaining at 6 h, 100 µM (in vitro) | remaining at 24 h, 100 µM (in vitro) | remaining at 48 h, 100 µM (in vitro) | Ki (hNTS1R; [3]) | Ki (hNTS2R; [4]) |
| --- | --- | --- | --- | --- | --- | --- | --- | --- | --- | --- | --- | --- | --- | --- | --- |
| CC(C)C[C@H](NC(=O)[C@@H](NC(=O)[C@H](Cc1ccc(O)cc1)NC(=O)[C@@H]1CCCN1C(=O)[C@H](CCCNC(N)=NC(=O)NCCCCNC(=O)CN1CCN(CC(=O)O)CCN(CC(=O)O)CCN(CC(=O)O)CC1)N(C)C(=O)[C@@H](N)CCCNC(=N)N)C(C)(C)C)C(=O)O [Compound 22] | 4.4 | 7.70 ± 0.07 | 20 nM | 7.08 ± 0.16 | 88 nM | >99% | 87 ± 2% | 30 ± 1% | 7.7 ± 1.0% | – | – | – | – | – | – |
| CN[C@@H](CCCNC(=N)N)C(=O)N[C@@H](CCCNC(=N)N)C(=O)N1CCC[C@H]1C(=O)N[C@@H](Cc1ccc(O)cc1)C(=O)N[C@@](C)(CC(C)C)C(=O)N[C@@H](CC(C)C)C(=O)O [Compound 44] (HELM PEPTIDE1{[meR].R.P.Y.[CC(C)C[C@](C)(N[*:1])C(=O)[*:2]].L}$$$$V2.0) | – | – | > 1000 nM | – | – | – | – | – | – | 94 ± 1% | 91 ± 4% | 91 ± 1% | 87 ± 1% | > 1000 nM | – |
| CC[C@@H](C)[C@H](NC(=O)[C@H](Cc1ccc(O)cc1)NC(=O)[C@@H]1CCCN1C(=O)[C@H](CCCNC(=N)N)NC(=O)[C@H](CCCNC(=N)N)NC)C(=O)N[C@@H](CC(C)C)C(=O)O [Compound 38] | – | – | 4.8 nM | – | – | – | – | – | – | 92 ± 1% | 87 ± 1% | 70 ± 1% | 52 ± 1% | 4.68 nM | – |
| CCC(CC)(NC(=O)[C@H](Cc1ccc(O)cc1)NC(=O)[C@@H]1CCCN1C(=O)[C@H](CCCNC(=N)N)NC(=O)[C@H](CCCNC(=N)N)NC)C(=O)N[C@@H](CC(C)C)C(=O)O [Compound 39] | – | – | > 1000 nM | – | – | – | – | – | – | 93 ± 1% | 94 ± 1% | 93 ± 1% | 93 ± 1% | > 1000 nM | – |
| CN[C@@H](CCCNC(=N)N)C(=O)N[C@@H](CCCNC(=N)NC(=O)NCCCCNC(=O)CN1CCN(CC(=O)O)CCN(CC(=O)O)CCN(CC(=O)O)CC1)C(=O)N1CCC[C@H]1C(=O)N[C@@H](Cc1ccc(O)cc1)C(=O)N[C@H](C(=O)N[C@@H](CC(C)C)C(=O)O)C(C)(C)C [Compound 14] | 2.8 | – | 28 nM | – | 79 nM | – | – | – | – | – | – | – | – | 21.9 nM | – |
| CC[C@](C)(NC(=O)[C@H](Cc1ccc(O)cc1)NC(=O)[C@@H]1CCCN1C(=O)[C@H](CCCNC(=N)N)NC(=O)[C@H](CCCNC(=N)N)NC)C(=O)N[C@@H](CC(C)C)C(=O)O [Compound 45] | – | – | > 1000 nM | – | – | – | – | – | – | 93 ± 1% | 92 ± 1% | 86 ± 1% | 77 ± 1% | > 1000 nM | – |
| CN[C@@H](CCCNC(=N)NC(=O)NCCOCCOCCNC(=O)CN1CCN(CC(=O)O)CCN(CC(=O)O)CCN(CC(=O)O)CC1)C(=O)N[C@@H](CCCNC(=N)N)C(=O)N1CCC[C@H]1C(=O)N[C@@H](Cc1ccc(O)cc1)C(=O)N[C@H](C(=O)N[C@@H](CC(C)C)C(=O)O)C(C)(C)C [Compound 18] | – | – | 36 nM | – | – | – | – | 94 ± 1% | 86 ± 1% | – | 99 ± 1% | – | – | – | – |
| CN[C@@H](CCCNC(N)=NC(=O)NCCCCN)C(=O)N[C@@H](CCCNC(=N)N)C(=O)N1CCC[C@H]1C(=O)N[C@H](C(=O)N[C@H](C(=O)N[C@@H](CC(C)C)C(=O)O)C(C)(C)C)C(C)(C)c1ccc(O)cc1 [Compound 52] | 1.2 | – | 5.4 nM | – | 6.5 nM | – | – | – | – | – | – | – | – | 5.01 nM | 6.03 nM |

Now from value to compound:

| NTS1R Selectivity (Ratio Ki (NTS2R)/Ki (NTS1R)) (hNTS1R) | pKi ± SD NTS1R (hNTS1R) | Ki (hNTS1R; [1]) | pKi ± SD NTS2R (hNTS2R) | Ki (hNTS2R; [2]) | % Intact Peptide in Plasma after 1 h (in vitro; 1 h, 100 µM, pH 7.4) | % Intact Peptide in Plasma after 6 h (in vitro; 6 h, 100 µM, pH 7.4) | % Intact Peptide in Plasma after 24 h (in vitro; 100 µM, pH 7.4) | % Intact Peptide in Plasma after 48 h (in vitro; 100 µM, pH 7.4) | remaining at 1 h, 100 µM (in vitro) | remaining at 6 h, 100 µM (in vitro) | remaining at 24 h, 100 µM (in vitro) | remaining at 48 h, 100 µM (in vitro) | Ki (hNTS1R; [3]) | Ki (hNTS2R; [4]) | SMILES |
| --- | --- | --- | --- | --- | --- | --- | --- | --- | --- | --- | --- | --- | --- | --- | --- |
| 4.6 | 7.80 ± 0.03 | 16 nM | 7.16 ± 0.18 | 73 nM | – | – | – | – | > 99% | > 99% | 36 ± 1% | 4.2 ± 0.6% | – | – | CN[C@@H](CCCNC(=N)N)C(=O)N[C@@H](CCCNC(N)=NC(=O)NCCCCNC(=O)CN1CCN(CC(=O)O)CCN(CC(=O)O)CCN(CC(=O)O)CC1)C(=O)N1CCC[C@H]1C(=O)N[C@@H](Cc1ccc(O)cc1)C(=O)N[C@H](C(=O)N[C@@H](CC(C)C)C(=O)O)C(C)(C)C [Compound 19] |
| – | – | 5 nM | – | – | – | – | – | – | 92 ± 1% | 74 ± 1% | 15 ± 1% | < 1% | – | – | CN[C@@H](CCCNC(=N)N)C(=O)N[C@@H](CCCNC(=N)N)C(=O)N1CCC[C@H]1C(=O)N[C@@H](Cc1ccc(O)cc1)C(=O)N[C@@H](CC1CC1)C(=O)N[C@@H](CC(C)C)C(=O)O [Compound 41] |
| – | – | – | – | 450 nM | – | – | – | – | – | – | – | – | – | 398 nM | CN[C@@H](CCCNC(N)=NC(=O)NCCCCN)C(=O)N[C@@H](CCCNC(=N)N)C(=O)N1CCC[C@H]1C(=O)N[C@@H](C(=O)N[C@H](C(=O)N[C@@H](CC(C)C)C(=O)O)C(C)(C)C)C(C)(C)c1ccc(O)cc1 [Compound 53] |
| – | – | 9.6 nM | – | – | – | – | – | – | 88 ± 1% | 58 ± 1% | < 1% | < 1% | 8.91 nM | – | CN[C@@H](CCCNC(=N)N)C(=O)N[C@@H](CCCNC(=N)N)C(=O)N1CCC[C@H]1C(=O)N[C@@H](Cc1ccc(O)cc1)C(=O)N[C@H](C(=O)N[C@@H](CC(C)C)C(=O)O)C1CC1 [Compound 40] |
| – | – | 1.2 nM | – | – | – | – | – | – | 99 ± 1% | 95 ± 1% | 78 ± 1% | 58 ± 1% | – | – | CN[C@@H](CCCNC(=N)N)C(=O)N[C@@H](CCCNC(=N)N)C(=O)N1CCC[C@H]1C(=O)N[C@@H](Cc1ccc(O)cc1)C(=O)N[C@H](C(=O)N[C@@H](CC(C)C)C(=O)O)C1CCCC1 [Compound 43] |
| – | – | 2.6 nM | – | – | – | – | – | – | 25 ± 2% | < 1% | < 1% | < 1% | 2.34 nM | – | CC[C@H](C)[C@H](NC(=O)[C@H](Cc1ccc(O)cc1)NC(=O)[C@@H]1CCCN1C(=O)[C@H](CCCNC(=N)N)NC(=O)[C@H](CCCNC(=N)N)NC)C(=O)N[C@@H](CC1CC1)C(=O)O [Compound 46] |
